The record followed here is patent US11028078B2 (The Johns Hopkins University, priority 2011, dated 2021).

Assay [1] has as its system MB cultures derived from Ptch−/+; p53−/− mice. The assay is described as follows: Medulloblastoma (MB) proliferation assay. Type of assay: cell-based, mouse. As to conditions: for MB Proliferation (IC50/IC50 Itra): mouse medulloblastoma cultures, 96 h, relative to itraconazole; for inhibition of MB proliferation: FIG. 9A. From the text: These cultures were derived from Ptch^−/+; p53^−/− mice that spontaneously develop medulloblastoma associated with ligand independent Hh pathway activation.
MB cultures were derived from mouse Ptch^−/+; p53^−/− MB grown as hind-flank allografts in nude mice (Harlan). Briefly, tumors were mechanically disrupted and made into single cell suspensions by two passages through a 70 μm nylon filter. Cells were pelleted by centrifugation and resuspended in PBS pH 7.4 twice. The cell suspension was then subjected to centrifugation at 1000×g for 25 min over a ficoll gradient. The viable cell layer formed at the ficoll boundary was then collected, suspended in PBS, and pelleted by centrifugation. The resulting pellet was then suspended and cultured as “neurospheres” in Neurobasal Media-A supplemented with retinoic acid deficient B-27 extract (NBMedia). Cells were cultured for three passages, with neurospheres disaggregated using Accumax (Innovative Cell Technologies) between passages.
Cultured MB neurospheres were disaggregated as described and 1×10^4 cells were seeded into wells of a 96-well assay plate in NBMedia and exposed to multiple analogue concentrations: Relative cell numbers following a 96-h incubation were quantified by CellTiter 96® AQueous One Solution Cell Proliferation Assay (Promega) per manufacturer's recommendations using a SpectraMax M2e spectrophotometer and SoftMax Pro software (Molecular Devices). Data was analyzed using Prism5 (GraphPad Software) and IC50 and IC90 values were determined from dose-response curves fitted to mean corrected absorbance normalized to control treatment.

Another assay deals with HUVEC. Briefly: HUVEC proliferation assay ([3H]thymidine incorporation). The class given is cell-based, human. As to conditions: for Proliferation (IC50/IC50 Itra) / IC50: HUVEC; for Proliferation (IC50/IC50 Itra): IC50 of analog relative to IC50 of itraconazole; for IC50: Homo sapiens, Table 5, read-out: Activity in HUVEC Proliferation IC50; for inhibition of HUVEC proliferation: data not shown. How it is done: The activity of the analogs against HUVEC proliferation, an in vitro proxy for angiogenesis inhibition (Table 3) was analyzed. […]
Pooled HUVEC (Lonza) were grown in EGM-2 bullet kit media (Lonza) and used at passage eight or lower. The proliferation assays were conducted as previously described (Nacev, B.; Low, W. K.; Huang, Z.; Su, T.; Su, Z.; Alkuraya, H.; Kasuga, D.; Sun, W.; Trager, M.; Braun, M.; Fischer, G.; Zhang, K.; Liu, J. O., Acalcineurin-independent mechanism of angiogenesis inhibition by anon-immunosuppressive Cyclosporin Aanalog. J. Pharmacol. Exp. Ther. 2011, DOI:10.1124/jpet.111.18085).

A further assay has as its system Gli1 transcript. The assay is described as follows: Quantification of Gli1 transcript by TaqMan analysis in MB cells (Hh pathway). Type of assay: cell-based, mouse. As to conditions: for Gli I Inhibition (IC90 Prolif. dose): Gli1 transcript fold induction score, MB cells exposed 24 h at the IC90 for MB proliferation; for inhibition of Gli1 transcript levels: established MB cultures, FIG. 9B. From the text: Inhibitors of the Hh pathway are known to inhibit MB cell proliferation. However, MB cell proliferation is also affected by drugs with targets other than Hh signaling.
Following drug exposure, cells were washed in PBS and pelleted by centrifugation at 300×g. Cell pellets were lysed in Trizol reagent (Invitrogen). Total RNA was separated and collected in the aqueous phase following centrifugation of lysate in the presence of chloroform. Total RNA was ethanol precipitated and purified over RNeasy Mini Kit (Qiagen) filter columns per manufacturer's recommendations. Transcript levels were quantified using gene-specific TaqMan primer/probe sets and the StepOne Plus Real-Time PCR system (Applied Biosystems) on cDNA reverse transcribed using the QuantiTect Reverse Transcription Kit (Qiagen) per manufacturers' recommendations. Results were quantified using StepOne Plus software v2.1 (Applied Biosystems) and were expressed as fold induction relative to control samples using the A ΔCt (2^−ΔΔCt) method with actin as an internal control. The primer/probe set (Applied Biosystems) for TaqMan PCR for mouse Gli-1 was Mm00494645_m1, and for mouse actin was Mm00607939_s1.

A further assay concerns VEGFR2. The assay is described as follows: VEGFR2 glycosylation in HUVEC (Western blot scoring). Type of assay: cell-based, human. As to conditions: for Glycosylation (2 μM dose): VEGFR2 hypoglycosylation score in HUVEC, 24 h; for VEGFR2 glycosylation defect: data not shown. The method, then:
VEGFR2 hypoglycosylation was scored either robust (++), intermediate (+), or absent (−) (FIG. 6).
HUVEC were seeded at 5×10^4 per well of a 6-well plate in 3 mL of media. After an overnight recovery, the media was replaced with 2 mL fresh media and the analogs were added from 200× stocks in DMSO. Following a 24-h incubation, the media was aspirated and 2×SDS sample buffer was added to the cells which were incubated on ice for 10 min and then boiled for 10 min. […] Following three washes in TBS-T, the membrane was incubated with anti-rabbit horseradish peroxidase conjugated IgG (GE Healthcare) (1:5000-1:10000 dilution) in 1% BSA in TBS-T. The membranes were washed three times in TBS-T, incubated for 1-5 minutes with ECL substrate (Immobilon Wester, Milipore) and visualized (Kodak Image Staion 440 CF).
A general note: Immunoblotting shows a protein as a band on a membrane.

Take `Cn1ncn(-c2ccc(N3CCN(c4ccc(OC[C@@H]5CO[C@@](Cn6cncn6)(c6ccc(Cl)cc6Cl)O5)cc4)CC3)cc2)c1=O` (relative stereo) [Compound 7a, cis-(2S,4R)-4-[4-[4-[4-[[2-(2,4-Dichlorophenyl)-2-(UH-1,2,4-triazol-1-ylmethyl)-1,3-dioxolan-4-yl]methoxy]phenyl]-lpiperazinyl]phenyl]-2,4-dihydro-2-methyl-3H-1,2,4-triazol-3-one]: the “MB Proliferation (IC50/IC50 Itra)” value in assay [1] amounted to 2.71. In addition, the “Proliferation (IC50/IC50 Itra)” value in the assay on HUVEC was 4.00. In addition, the “Gli I Inhibition (IC90 Prolif. dose)” value in the assay on Gli1 transcript was “− (≥0.45)”. Further, in the assay with VEGFR2, the “Glycosylation (2 μM dose)” value is on record as “−”.
Taken in the same sequence, the figures for `CCn1ncn(-c2ccc(N3CCN(c4ccc(OC[C@@H]5CO[C@@](Cn6cncn6)(c6ccc(Cl)cc6Cl)O5)cc4)CC3)cc2)c1=O` (relative stereo) [Compound 7b, cis-(2S,4R)-4-[4-[4-[4-[[2-(2,4-Dichlorophenyl)-2-(1H-1,2,4-triazol-1-ylmethyl)-1,3-dioxolan-4-yl]methoxy]phenyl]-lpiperazinyl]phenyl]-2,4-dihydro-2-ethyl-3H-1,2,4-triazol-3-one] were 1.62, 2.94, “− (≥0.45)” and “−”.
With `O=C(c1ccccc1)c1ccc(OCCCCCCn2ncn(-c3ccc(N4CCN(c5ccc(OCC6COC(Cn7cncn7)(c7ccc(Cl)cc7Cl)O6)cc5)CC4)cc3)c2=O)cc1` [Compound 7q, cis-(2S,4R)-4-[4-[4-[4-[[2-(2,4-Dichlorophenyl)-2-(1H-1,2,4-triazol-1-ylmethyl)-1,3-dioxolan-4-yl]methoxy]phenyl]-piperazinyl]phenyl]-2,4-dihydro-2-(6-(4-benzoylphenoxy)hexyl)-3H-1,2,4-triazol-3-one], the “MB Proliferation (IC50/IC50 Itra)” value in assay [1] is given as 0.8. Further, in the assay with Gli1 transcript, the “Gli I Inhibition (IC90 Prolif. dose)” value was “− (≥0.45)”. Besides, in the assay on VEGFR2, the “Glycosylation (2 μM dose)” value is “−”.
Consider `CCC(C)n1ncn(-c2ccc(N3CCN(c4ccc(OCC5CO[C@@](Cn6cncn6)(c6ccc(Cl)cc6Cl)O5)cc4)CC3)cc2)c1=O` (some centres unmarked) [Compound 46a], for which the IC50 in the assay with HUVEC was 155 nM.
Still for that read-out and setting: for `CCC(C)n1ncn(-c2ccc(N3CCN(c4ccc(OCC5CO[C@](Cn6cncn6)(c6ccc(Cl)cc6Cl)O5)cc4)CC3)cc2)c1=O` (some centres unmarked) [Compound 46b] the value was 236 nM; for `CCC(C)n1ncn(-c2ccc(N3CCN(c4ccc(OCC5CO[C@@](Cn6cncn6)(c6ccc(Cl)cc6Cl)O5)nc4)CC3)c(C)c2)c1=O` (some centres unmarked) [Compound 47a], 155 nM.
Turning to `CS(=O)(=O)c1ccc(C(=O)Nc2ccc(Cl)c(-c3ccccn3)c2)c(Cl)c1` [GDC-0449, reference compound], the “inhibition of MB proliferation” value in assay [1] is given as “Dose-dependent inhibition”. Moreover, in the assay with Gli1 transcript, the “inhibition of Gli1 transcript levels” value is listed as “Dose-dependent inhibition”.
Take `CC[C@@H](C)n1ncn(-c2ccc(N3CCN(c4ccc(OCC5CO[C@@](Cn6cncn6)(c6ccc(Cl)cc6Cl)O5)cc4)CC3)cc2)c1=O` (some centres unmarked) [Itraconazole C, reference compound]: in the assay with HUVEC, the IC50 came out at 152 nM.
Take `CC(=O)N1CCN(c2ccc(OCC3COC(Cn4ccnc4)(c4ccc(Cl)cc4Cl)O3)cc2)CC1` (centres unmarked) [ketoconazole, reference compound]: the “inhibition of HUVEC proliferation” value with HUVEC is listed as “do not inhibit proliferation”. Besides, the “VEGFR2 glycosylation defect” value in the assay on VEGFR2 was “fail to induce the VEGFR2 glycosylation defect”.
Regarding `CC(C)N1CCN(c2ccc(OCC3COC(Cn4cncn4)(c4ccc(Cl)cc4Cl)O3)cc2)CC1` (centres unmarked) [terconazole, reference compound], in the assay with HUVEC, the “inhibition of HUVEC proliferation” value was “do not inhibit proliferation”. Moreover, the “VEGFR2 glycosylation defect” value in the assay on VEGFR2 is “fail to induce the VEGFR2 glycosylation defect”.
For the molecule HhAntag [reference compound], the “inhibition of MB proliferation” value in assay [1] was “Dose-dependent inhibition”. For the same molecule, the “inhibition of Gli1 transcript levels” value in the assay with Gli1 transcript was “Dose-dependent inhibition”.
